In patent US10597388B2, “Pyridazinone herbicides” (FMC CORPORATION, priority 2014, dated 2020):

Experiments:
Assay type in all cases: in vivo
[1] = test system: waterhemp_RES1 (ALS & Triazine resistant common waterhemp, Amaranthus rudis); assay: Test E greenhouse herbicide test, postemergence
How it was run: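 Greenhouse test, 14–21 d after postemergence treatment of 2–18 cm plants; percent control was assessed visually, 0–100, against untreated plants.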

[2] = test system: nutsedge, yellow (yellow nutsedge, Cyperus esculentus); assay: Test E greenhouse herbicide test, pre- and postemergence; conditions: Preemergence
How it was run: (§1)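 Herbicidal effect was judged by eye relative to untreated plants 14 to 21 d after spraying, using 0 for no effect and 100 for complete control. Preemergence sprays went onto freshly seeded silt loam; postemergence sprays onto 2–18 cm seedlings.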

[3] = test system: sandbur (southem sandbur, Cenchrus echinatus); assay: as above
How it was run: as §1

[4] = test system: velvetleaf (Abutilon theophrasti); assay: as above; conditions: Preemergence
How it was run: as §1

[5] = test system: foxtail, giant (giant foxtail, Setaria faberii); assay: as above; conditions: Preemergence
How it was run: as §1

[6] = test system: dayflower (Virginia (VA) dayflower, Commelina virginica); assay: as above
How it was run: as §1

[7] = test system: crabgrass, large (large crabgrass, Digitaria sanguinalis); assay: as above; conditions: Preemergence
How it was run: as §1

[8] = test system: crabgrass, Brazilian (Brazilian crabgrass, Digitaria horizontalis); assay: as above
How it was run: as §1

[9] = test system: foxtail, green (green foxtail, Setaria viridis); assay: as above; conditions: Preemergence
How it was run: as §1

[10] = test system: pigweed, palmer (palmer pigweed, Amaranthus palmeri); assay: as above
How it was run: as §1

[11] = test system: lambsquarters (Chenopodium album); assay: as above; conditions: Preemergence
How it was run: as §1

soybean (Glycine max) = assay: as above
How it was run: as §1

[12] = test system: johnsongrass (Sorghum halepense); assay: as above; conditions: Preemergence
How it was run: as §1

[13] = test system: panicum, fall (fall panicum, Panicum dichotomiflorum); assay: as above
How it was run: as §1

kochia (Kochia scoparia) = assay: as above
How it was run: as §1

corn (Zea mays) = assay: as above
How it was run: as §1

[14] = 125 g ai/ha, scale 0 to 100 (0 no effect, 100 complete control)
[15] = 62 g ai/ha, scale 0 to 100 (0 no effect, 100 complete control)
[16] = 16 g ai/ha, scale 0 to 100, 0 no effect, 100 complete control
[17] = 31 g ai/ha, scale 0 to 100, 0 no effect, 100 complete control
[18] = 62 g ai/ha, Preemergence, scale 0 to 100 (0 no effect, 100 complete control)
[19] = 125 g ai/ha, Postemergence, scale 0 to 100 (0 no effect, 100 complete control)
[20] = 125 g ai/ha, Preemergence, scale 0 to 100 (0 no effect, 100 complete control)
[21] = Postemergence, 16 g ai/ha, visual, scale 0 no effect to 100 complete control
[22] = Postemergence, 31 g ai/ha, visual, scale 0 no effect to 100 complete control
[23] = Preemergence, 16 g ai/ha, scale 0 to 100, 0 no effect, 100 complete control
[24] = Preemergence, 31 g ai/ha, scale 0 to 100, 0 no effect, 100 complete control
[25] = 62 g ai/ha, Postemergence, scale 0 to 100 (0 no effect, 100 complete control)

## CCCC(=O)Oc1c(C)nn(C)c(=O)c1-c1c(C)sc2ccc(C)cc12 [Compound 105]
[1]; 16 g ai/ha, visual, scale 0 no effect to 100 complete control
  Plant response rating, Waterhemp_RES1: 80
[1]; 31 g ai/ha, visual, scale 0 no effect to 100 complete control
  Plant response rating, Waterhemp_RES1: 80
[1]; [14]
  Plant response rating, Waterhemp_RES1: 100
[2]; [15]
  Plant response rating, Nutsedge, Yellow: 10
[2]; [14]
  Plant response rating, Nutsedge, Yellow: 40
[2]; [16]
  Plant response rating, Nutsedge, Yellow: 0
[2]; [17]
  Plant response rating, Nutsedge, Yellow: 0
[3]; [18]
  Plant response rating, Sandbur: 70
[3]; [19]
  Plant response rating, Sandbur: 50
[3]; [20]
  Plant response rating, Sandbur: 75
[3]; [21]
  Plant response rating, Sandbur: 30
[3]; [22]
  Plant response rating, Sandbur: 40
[3]; [23]
  Plant response rating, Sandbur: 0
[3]; [24]
  Plant response rating, Sandbur: 15
[4]; [15]
  Plant response rating, Velvetleaf: 70
[4]; [14]
  Plant response rating, Velvetleaf: 95
[4]; [16]
  Plant response rating, Velvetleaf: 0
[4]; [17]
  Plant response rating, Velvetleaf: 50
[5]; [15]
  Plant response rating, Foxtail, Giant: 35
[5]; [14]
  Plant response rating, Foxtail, Giant: 75
[5]; [16]
  Plant response rating, Foxtail, Giant: 0
[5]; [17]
  Plant response rating, Foxtail, Giant: 0
[6]; [25]
  Plant response rating, Dayflower, VA: 50
[6]; [18]
  Plant response rating, Dayflower, VA: 0
[6]; [19]
  Plant response rating, Dayflower, VA: 60
[6]; [20]
  Plant response rating, Dayflower, VA: 10
[6]; [21]
  Plant response rating, Dayflower, VA: 30
[6]; [22]
  Plant response rating, Dayflower, VA: 30
[6]; [23]
  Plant response rating, Dayflower, VA: 0
[6]; [24]
  Plant response rating, Dayflower, VA: 0
[7]; [15]
  Plant response rating, Crabgrass, Large: 50
[7]; [14]
  Plant response rating, Crabgrass, Large: 75
[7]; [16]
  Plant response rating, Crabgrass, Large: 0
[7]; [17]
  Plant response rating, Crabgrass, Large: 0
[8]; [25]
  Plant response rating, Crabgrass, Brazil: 40
[8]; [18]
  Plant response rating, Crabgrass, Brazil: 35
[8]; [19]
  Plant response rating, Crabgrass, Brazil: 50
[8]; [20]
  Plant response rating, Crabgrass, Brazil: 75
[8]; [21]
  Plant response rating, Crabgrass, Brazil: 5
[8]; [22]
  Plant response rating, Crabgrass, Brazil: 20
[8]; [24]
  Plant response rating, Crabgrass, Brazil: 0
[9]; [15]
  Plant response rating, Foxtail, Green: 30
[9]; [14]
  Plant response rating, Foxtail, Green: 40
[9]; [16]
  Plant response rating, Foxtail, Green: 0
[9]; [17]
  Plant response rating, Foxtail, Green: 0
[10]; [25]
  Plant response rating, Pigweed, Palmer: 70
[10]; [18]
  Plant response rating, Pigweed, Palmer: 98
[10]; [19]
  Plant response rating, Pigweed, Palmer: 70
[10]; [20]
  Plant response rating, Pigweed, Palmer: 90
[10]; [21]
  Plant response rating, Pigweed, Palmer: 75
[10]; [22]
  Plant response rating, Pigweed, Palmer: 70
[10]; [23]
  Plant response rating, Pigweed, Palmer: 0
[10]; [24]
  Plant response rating, Pigweed, Palmer: 0
[11]; [15]
  Plant response rating, Lambsquarters: 100
[11]; [14]
  Plant response rating, Lambsquarters: 100
[11]; [16]
  Plant response rating, Lambsquarters: 0
[11]; [17]
  Plant response rating, Lambsquarters: 0
Soybean (Glycine max); [18]
  Plant response rating, Soybean: 0
Soybean (Glycine max); [19]
  Plant response rating, Soybean: 25
Soybean (Glycine max); [20]
  Plant response rating, Soybean: 75
Soybean (Glycine max); [21]
  Plant response rating, Soybean: 0
Soybean (Glycine max); [22]
  Plant response rating, Soybean: 10
Soybean (Glycine max); [23]
  Plant response rating, Soybean: 0
Soybean (Glycine max); [24]
  Plant response rating, Soybean: 0
[12]; [15]
  Plant response rating, Johnsongrass: 20
[12]; [14]
  Plant response rating, Johnsongrass: 20
[12]; [16]
  Plant response rating, Johnsongrass: 0
[12]; [17]
  Plant response rating, Johnsongrass: 0
[13]; [25]
  Plant response rating, Panicum, Fall: 70
[13]; [18]
  Plant response rating, Panicum, Fall: 90
[13]; [19]
  Plant response rating, Panicum, Fall: 80
[13]; [20]
  Plant response rating, Panicum, Fall: 98
[13]; [21]
  Plant response rating, Panicum, Fall: 40
[13]; [22]
  Plant response rating, Panicum, Fall: 60
[13]; [23]
  Plant response rating, Panicum, Fall: 25
[13]; [24]
  Plant response rating, Panicum, Fall: 65
Kochia (Kochia scoparia); [25]
  Plant response rating, Kochia: 90
Kochia (Kochia scoparia); [18]
  Plant response rating, Kochia: 35
Kochia (Kochia scoparia); [19]
  Plant response rating, Kochia: 100
Kochia (Kochia scoparia); [20]
  Plant response rating, Kochia: 100
Kochia (Kochia scoparia); [21]
  Plant response rating, Kochia: 80
Kochia (Kochia scoparia); [22]
  Plant response rating, Kochia: 80
Kochia (Kochia scoparia); [23]
  Plant response rating, Kochia: 0
Kochia (Kochia scoparia); [24]
  Plant response rating, Kochia: 0
Corn (Zea mays); [25]
  Plant response rating, Corn: 15
Corn (Zea mays); [18]
  Plant response rating, Corn: 0
Corn (Zea mays); [19]
  Plant response rating, Corn: 20
Corn (Zea mays); [20]
  Plant response rating, Corn: 0
Corn (Zea mays); [21]
  Plant response rating, Corn: 0
Corn (Zea mays); [22]
  Plant response rating, Corn: 5
Corn (Zea mays); [23]
  Plant response rating, Corn: 0
Corn (Zea mays); [24]
  Plant response rating, Corn: 0
